Patent US6294547A, “Naphthyridine deratives or salts thereof” (Nippon Kayaku Kabushiki Kaisha, priority 1997, dated 2001)
Where a name gives a salt, the structure may show the parent alone.

Columns and labels:
NK-2 receptors [1] = target: T1, NK-2 receptors (Rattus norvegicus, UniProt P16610); assay: Binding to NK-2 receptors (inhibition of radioactive 125I-neurokinin A binding); type: Fischer strain male rats (duodenum membranes); conditions: rat duodenum membrane; 125I-neurokinin A 1×10^-9 M; 90 min, room temperature; read-out: IC50 of drugs in binding of radioactive neurokinin A
T1 construct: Duodenums isolated from Fischer strain male rats were homogenized; from tissue; host or cells: duodenum membranes of male Fischer rats
T1 sequence (P16610 1-390): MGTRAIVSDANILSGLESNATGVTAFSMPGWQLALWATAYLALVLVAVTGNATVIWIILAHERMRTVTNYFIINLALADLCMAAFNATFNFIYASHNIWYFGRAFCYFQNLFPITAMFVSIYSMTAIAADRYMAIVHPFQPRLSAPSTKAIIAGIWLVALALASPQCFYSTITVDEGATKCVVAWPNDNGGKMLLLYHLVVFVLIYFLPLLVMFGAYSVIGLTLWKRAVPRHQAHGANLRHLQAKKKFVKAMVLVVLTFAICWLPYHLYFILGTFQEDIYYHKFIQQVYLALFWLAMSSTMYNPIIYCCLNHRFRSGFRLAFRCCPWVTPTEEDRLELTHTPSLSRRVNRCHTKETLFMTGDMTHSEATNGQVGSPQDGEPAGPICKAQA
Protocol: Duodenums isolated from Fischer strain male rats were homogenized in 50 mM Tris-hydrochloric acid buffer (pH 7.4) containing saccharose (100 mg/ml) and ethylenediaminetetraacetic acid (1 mM), and the resulting homogenate was centrifuged at 48,000 g and 4° C. for 20 minutes. The pellet thus obtained was washed three times with 10 times as much 50 mM Tris-hydrochloric acid buffer (pH 7.4) containing KCl (300 mM) and ethylenediaminetetraacetic acid (10 mM) as the pellet by volume, and the resulting membrane preparation was suspended in 10 times as much 50 mM Tris-hydrochloric acid buffer (pH 7.4) as the membrane preparation by volume and stored at -80° C. until use. The membrane preparation (20 mg/ml) was incubated together with a radioactive ligand ^125 I-neurokinin A (1×10^-9 M) at room temperature for 90 minutes in the presence of each drug or a solvent therefor in 50 mM Tris-hydrochloricacid buffer (pH 7.4) containing bovine serum albumin (10 mg/ml), bacitracin (40 μg/ml), leupeptin (4 μg/ml), chymostatin (50 μg/ml), antipain (1×10^-4 M) and MnCl2 (1 mM). […] Then, radioactivity in the filter was measured with a gamma counter. The 50% inhibitory concentration (IC50) of the drug was determined by means of a regression line by considering radioactivity in the presence of Nle10 neurokinin A (4-10) (3×10^-6 M) to be due to nonspecific binding, and measuring the rate of inhibition of specific binding by the drug by carrying out a control experiment using the solvent alone.

Mouse = assay: Toxic effect on mouse, intravenous; type: in vivo; conditions: 65 μmol/kg intravenous
Excerpt: The toxicity of the compounds of the present invention was investigated.

NK-2 receptors [2] = assay: Inhibitory effect on bronchoconstriction caused by stimulation of NK-2 receptors (Nle10 neurokinin A (4-10)); type: in vivo, Hartley strain male guinea pigs
Protocol: There were used non-treated Hartley strain male guinea pigs and Hartley strain male guinea pigs received to active sensitization by subcutaneous administration of 30 mg/kg of ovalbumin 14 to 21 days before. The guinea pigs were anesthetized with pentobarbital and a tube was inserted into the trachea of each guinea pig. The guinea pigs were subjected to positive pressure respiration by means of an artificial respiratory apparatus at 10 ml/kg and 60 times/minute. The pressure in the edge of the tube in the trachea was measured as an indication of bronchoconstriction. Spontaneous respiration was inhibited by administering succinylcholine. The non-treated guinea pigs were repeatedly and intravenously injected with 2 nmol/kg of Nle10 neurokinin A (4-10), a specific stimulating agent for NK-2 receptors at intervals of 10 minutes. After the bronchoconstriction thus caused became stable, each drug was administered intravenously, orally or in duodenum. Nle10 neurokinin A (4-10) was intravenously injected again 3 minutes after the intravenous administration or 50 minutes after the oral administration or the administration in duodenum. The rate of inhibition by the drug was determined relative to the bronchoconstriction before the drug administration.

[3] = 0.5 μmol/kg intravenous, 3 min after administration
[4] = 8 μmol/kg oral, 50 min after administration
[5] = 1 μmol/kg intravenous, 3 min after administration

| Compound | IC50 (NK-2 receptors [1]) | Toxicity (Mouse) | Inhibition (rate), stimulation of NK-2 receptors (NK-2 receptors [2]; [3]) | Inhibition (rate), stimulation of NK-2 receptors (NK-2 receptors [2]; [4]) | Inhibition (rate), stimulation of NK-2 receptors (NK-2 receptors [2]; 0.6 μmol/kg intravenous, 3 min after administration) | Inhibition (rate), stimulation of NK-2 receptors (NK-2 receptors [2]; [5]) | Inhibition (rate), stimulation of NK-2 receptors (NK-2 receptors [2]; 5 μmol/kg in duodenum, 50 min after administration) |
| --- | --- | --- | --- | --- | --- | --- | --- |
| CC(=O)Nc1c2c(nc3ccccc13)CCN(CCC(CN(C)C(=O)c1ccccc1)c1ccc(Cl)c(Cl)c1)C2 (single isomer, unassigned) [Example 27, 2-[(-)-4-(N-benzoyl-N-methyl)amino-3-(3-4-dichlorophenylbutyl]-10-methylcarbonylamino-1,2,3,4-tetrahydro-benzo[b][1,6]naphthyridine fumarate] | 0.018 µM | None | 100.0% | 81.5% | – | – | – |
| CN(CC(CCN1CCc2nc3ccccc3c(C(N)=O)c2C1)c1ccc(Cl)c(Cl)c1)C(=O)c1ccccc1 (single isomer, unassigned) [Example 29, 2-[(-)-4-(N-benzoyl-N-methyl)amino-3-(3,4-dichlorophenyl)butyl]-1,2,3,4-tetrahydro-benzo-[b][1,6]naphthyridine-10-carboxamide fumarate] | 0.059 µM | – | – | 43.5% | 100.0% | – | – |
| COC(=O)c1c2c(nc3ccccc13)CCN(CCC(CN(C)C(=O)c1ccccc1)c1ccc(Cl)c(Cl)c1)C2 (single isomer, unassigned) [Example 31, 2-[(-)-4-(N-benzoyl-N-methyl1amino-3-(3,4-dichlorophenyl)butyl]-10-methoxycarbonyl-1,2,3,4-tetrahydro-benzo[b][1,6]naphthyridine fumarate] | 0.096 µM | – | – | 53.5% | – | 100.0% | – |
| CN(CC(CCN1CCc2nc3ccccc3c(C(=O)O)c2C1)c1ccc(Cl)c(Cl)c1)C(=O)c1ccccc1 (single isomer, unassigned) [Example 33, 2-[(-)-4-(N-benzoyl-N-methyl)amino-3-(3,4-dichlorophenyl)butyl]-1,2,3,4-tetrahydro-benzo-[b][1,6]naphthyridine-10-carboxylic acid fumarate] | 0.094 µM | – | – | – | – | 57.5% | – |
| CN(CC(CCN1CCc2nc3ccccc3c(CO)c2C1)c1ccc(Cl)c(Cl)c1)C(=O)c1ccccc1 (single isomer, unassigned) [Example 37, 2-[(-)-4-(N-benzoyl-N-methyl)amino-3-(3,4-dichlorophenylbutyl]-10-hydroxymethyl-1,2,3,4-tetrahydro-benzo-[b][1,6]naphthyridine fumarate] | 0.09 µM | – | – | – | – | 97.5% | – |
| CN(CC(CCN1CCc2nc3ccccc3c(-c3ccccc3)c2C1)c1ccc(Cl)c(Cl)c1)C(=O)c1ccccc1 (single isomer, unassigned) [Example 39, 2-[(-)-4-(N-benzoyl-N-methyl)amino-3-(3,4-dichlorophenyl)butyl]-10-phenyl-1,2,3,4-tetrahydro-benzo[b][1,6]naphthyridine fumarate] | 0.07 µM | – | 70.0% | – | – | – | – |
| COC(=O)Nc1c2c(nc3ccccc13)CCN(CCC(CN(C)C(=O)c1ccccc1)c1ccc(Cl)c(Cl)c1)C2 (single isomer, unassigned) [Example 41, 2-[(-)-4-(N-benzoyl-N-methyl)amino-3-(3,4-dichlorophenyl)butyl]-10-methoxycarbonylamino-1,2,3,4-tetrahydro-benzo[b][1,6]naphthyridine fumarate] | 0.03 µM | – | 97.0% | – | – | – | 62.0% |
| COC(=O)N(C)c1c2c(nc3ccccc13)CCN(CCC(CN(C)C(=O)c1ccccc1)c1ccc(Cl)c(Cl)c1)C2 (single isomer, unassigned) [Example 43, 2-[(-)-4-(N-benzoyl-N-methyl)amino-3-(3,4-dichlorophenyl)butyl]-10-(N-methyl-N-methoxycarbonyl)-amino-1,2,3,4-tetrahydro-benzo[b][1,6]naphthyridine fumarate] | 0.066 µM | – | 86.2% | – | – | – | – |
